Measured values as given in patent US20100261606A1, “Homogeneous and Storage-Stable Mixtures of Different Active Plant Protection Agent Granule Particles” (priority 2007, published 2010).
Values joined by “and” are separate entries in the source; they are usually repeats but may differ in a detail not shown here. Identical values can stand only once. Like-named read-outs stand apart in the source and are kept apart here.

Format: physicochemical
Text: This therefore allows the use according to the invention of these mixture packs for plant protectant active substances which had previously shown to be “incompatible” in mixture with other active substances on or in a granule particle. Determining the “incompatibility” of individual active substances in an active substance mixture is effected by simply measuring the remaining residual amounts of active substance after a predetermined storage period. The reasons for this active substance “incompatibility” with other active substances may be based on a very wide range of factors. However, it poses a serious problem for formulation research, when active substance mixtures required by the market cannot be realized due to this problem. [table]

[1] = in Granule coformulation (2), prior art, n = 1
[2] = in Granule mixture (1), according to the invention, n = 3

Row | SMILES | Absolute content after 2 months' storage at 40° C. [1] [% by weight] | Absolute content at the beginning of the storage [1] [% by weight] | Percentage change after 2 months' storage at 40° C. [1] [%] | Absolute content after 2 months' storage at 40° C. [2] | Absolute content at the beginning of the storage [2] | Percentage change after 2 months' storage at 40° C. [2] | Degradation during storage (in words) | Change in content during storage (in words) (in granule mixture (according to the invention))
1 | O=C(Nc1ccc(F)cc1F)c1cccnc1Oc1cccc(C(F)(F)F)c1 [Diflufenican, diflufenican] | 3.79 | 3.79 | 0.0 | 12.8 % by weight and 12.1 % by weight | 12.5 % by weight and 12.3 % by weight and 12.1 % by weight |  |  | 
2 | CC(C)N(C(=O)COc1nnc(C(F)(F)F)s1)c1ccc(F)cc1 [Flufenacet, flufenacet] | 12.10 | 12.40 | −2.4 | 39.2 % by weight and 38.3 % by weight and 39.9 % by weight | 39.8 % by weight and 40.0 % by weight and 40.6 % by weight | −1.5% and −4.3% and −1.7% |  | 
3 | COc1nc(C)nc(NC(=O)NS(=O)(=O)c2cc(I)ccc2C(=O)O)n1 [Iodosulfuron, iodosulfuron] | 0.039 | 0.135 | −71.0 | 0.367 % by weight and 0.360 % by weight and 0.382 % by weight | 0.330 % by weight and 0.312 % by weight and 0.378 % by weight |  | severe degradation | no appreciable change
